From PMC10310857 (Nature Communications, 2023)
Where “and” joins values, the source holds several entries; their conditions need not be identical. Equal values may be shown once. Entries after “also recorded” stand apart in the source; their conditions may differ.

Tests used:
V. dahliae = conditions: in vivo
GhMPK6 = system: GhMPK6; set-up: species or system Gossypium hirsutum cv. Lvmian; conditions: in vivo
GhRbohD = system: GhRbohD; set-up: species or system Gossypium hirsutum cv. Lvmian; conditions: in vivo
F. graminearum = system: F. graminearum; set-up: species or system F. graminearum strain Fg-1 on soybean; conditions: in vivo
F. oxysporum = system: F. oxysporum; set-up: species or system F. oxysporum strain Fo-2 on soybean; conditions: in vivo
R. solani = system: R. solani; set-up: species or system R. solani strain RS-1 on soybean; conditions: in vivo
[1] = system: P. striiformis f. sp. tritici (strain CYR32); set-up: species or system P. striiformis f. sp. tritici on wheat; conditions: in vivo
V. dahliae strain V991 = assay type: cell-based, Verticillium dahliae
[2] = system: F. graminearum strain Fg-1; assay type: cell-based
F. oxysporum strain Fo-2 = assay type: cell-based
R. solani strain RS-1 = assay type: cell-based
T. harzianum T27 = assay type: cell-based, Trichoderma harzianum
BmCDA7 = BmCDA7 (Bombyx mori, UniProt H9JW44)
Sequence of BmCDA7 (H9JW44 16-364): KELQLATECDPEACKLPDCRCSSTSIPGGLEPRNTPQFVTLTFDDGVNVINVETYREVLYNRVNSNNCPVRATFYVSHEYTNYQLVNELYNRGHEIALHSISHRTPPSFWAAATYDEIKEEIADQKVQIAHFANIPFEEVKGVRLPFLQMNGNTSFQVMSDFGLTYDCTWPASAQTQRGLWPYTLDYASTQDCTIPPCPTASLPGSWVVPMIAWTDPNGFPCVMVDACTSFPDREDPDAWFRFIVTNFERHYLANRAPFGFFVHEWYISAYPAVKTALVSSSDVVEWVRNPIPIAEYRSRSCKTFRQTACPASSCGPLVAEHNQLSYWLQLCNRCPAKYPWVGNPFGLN
Text: Effect o f BHA o n the activity of BmCDA7 from the insect Bombyx
mori. Bars in all graphs represent mean values, whiskers represent mean ± SEM, and black

VdPDA1 [3] = target: T1, VdPDA1 (Verticillium dahliae, UniProt G2X9U7); assay: biochemical
Experimental: The enzymatic activity of recombinantly expressed proteins was assayed using a fluorogenic labeling method[29]. The reaction mixture consisted of 100 μL of 100 nM testing enzyme and 0.5 mM (GlcNAc)3 in a 50 mM Hepes (pH 7.5) buffer. After incubation for 10 min at 30 °C, free amine production was measured using fluorescamine labeling and quantified with a glucosamine standard. All measurements were carried out in triplicate.
The compounds were screened to identify the small molecules inhibiting VdPDA1 and Pst_13661 using a liquid-handling robot. The compounds were prepared in a 96-well plate containing one compound per well at 10 mM each in 100% DMSO (except for BHA, which was dissolved in ddH2O). The plates were first diluted to 5 mM. The compounds were screened at 100 μM in 2% DMSO in a final reaction volume of 100 μL, containing 100 nM enzyme and 0.5 mM (GlcNAc)3 in 50 mM Hepes (pH 7.5) buffer. Negative enzyme-free controls and positive controls with and without DMSO were prepared. The plates were incubated at 30 °C for 10 min. All measurements were carried out in triplicate.
For the determination of the inhibition constants Ki, three substrate (GlcNAc)3 concentrations (0.5, 0.2, and 0.1 mM) and varied inhibitor concentrations were used. The Ki values were determined using Dixon plots[56]. In Dixon plots, the value of lines intersection that converges above the x-axis is denoted as Ki. […]

Pst_13661 = Pst_13661 (Puccinia striiformis f. sp. tritici, UniProt A0A0L0V0Y3, T32S); assay type: biochemical
VdPDA1 [4] = target: T1, VdPDA1; assay type: biochemical

SMILES: O=C(NO)c1ccccc1 [Compound 1, benzohydroxamic acid]
- Fungal biomass on cotton plants (V. dahliae): significantly reduced
- Fungal biomass on cotton plants (Fig. 3c) Mean (V. dahliae): 0.5294 and 0.2725
- Wilt symptoms of cotton plants (V. dahliae): did not exhibit wilt symptoms
- GhMPK6 expression in cotton roots (GhMPK6): upregulated
- GhRbohD expression in cotton roots (GhRbohD): upregulated
- Fungal biomass of soybean hypocotyls (F. graminearum): significantly reduced fungal biomass
- Lesions on soybean hypocotyls (F. graminearum): fewer lesions
- Fungal biomass of soybean hypocotyls (F. oxysporum): significantly reduced fungal biomass
- Fungal biomass of soybean hypocotyls (Fig. 5h) Mean (F. oxysporum): 0.6738 and 0.6606 and 0.4822
- Lesions on soybean hypocotyls (F. oxysporum): fewer lesions
- Fungal biomass of soybean hypocotyls (R. solani): significantly reduced fungal biomass
- Lesions on soybean hypocotyls (R. solani): fewer lesions
- Disease indices after P. striiformis f. sp. tritici infection of wheat plants [1]: greatly declined
- Colony morphology and hyphae growth of V. dahliae (V. dahliae strain V991): not affected
- Fungal growth (Fig. S3b), Mean (V. dahliae strain V991): 3.65 and 3.60 and 3.58
- Fungal growth (Fig. S3b), Mean [2]: 4.15 and 4.13 and 4.08
- Growth and morphology of F. graminearum [2]: normal morphology and developmental status; also recorded: does not affect the growth
- Fungal growth (Fig. S3b), Mean (F. oxysporum strain Fo-2): 2.98 and 2.90 and 2.95
- Growth and morphology of F. oxysporum (F. oxysporum strain Fo-2): normal morphology and developmental status; also recorded: does not affect the growth
- Fungal growth (Fig. S3b), Mean (R. solani strain RS-1): 3.03 and 3.13
- Growth and morphology of R. solani (R. solani strain RS-1): normal morphology and developmental status; also recorded: does not affect the growth
- Fungal growth (Fig. S3b), Mean (T. harzianum T27): 3.65 and 3.63
- Growth of Trichoderma harzianum (T. harzianum T27): does not affect the growth
- Activity of BmCDA7 (Fig. S4), Mean (BmCDA7): 101.71 and 105.43
- Inhibition of insect chitin deacetylases (BmCDA7): could not inhibit
- Ki (VdPDA1 [3]): 8.31 µM

SMILES: O=C(O)c1cccc(C(=O)O)n1 [DPA]
- Fig. S1c enzyme activity, Exp1 (Pst_13661): 4.96
- Fig. S1c enzyme activity, Exp2 (Pst_13661): 8.16
- Fig. S1c enzyme activity, Exp3 (Pst_13661): 14.56
- Fig. S1c enzyme activity, Mean (Pst_13661): 9.23
- Fig. S1d enzyme activity, Exp1 (VdPDA1 [4]): 0.31
- Fig. S1d enzyme activity, Exp2 (VdPDA1 [4]): -0.24
- Fig. S1d enzyme activity, Exp3 (VdPDA1 [4]): -0.41
- Fig. S1d enzyme activity, Mean (VdPDA1 [4]): -0.11

SMILES: [Ni+2] [Ni2+]
- Fig. S1c enzyme activity, Exp1 (Pst_13661): 49.78
- Fig. S1c enzyme activity, Exp2 (Pst_13661): 47.40
- Fig. S1c enzyme activity, Exp3 (Pst_13661): 46.47
- Fig. S1c enzyme activity, Mean (Pst_13661): 47.88
- Fig. S1d enzyme activity, Exp1 (VdPDA1 [4]): 36.44
- Fig. S1d enzyme activity, Exp2 (VdPDA1 [4]): 38.96
- Fig. S1d enzyme activity, Exp3 (VdPDA1 [4]): 38.03
- Fig. S1d enzyme activity, Mean (VdPDA1 [4]): 37.81

SMILES: [Zn+2] [Zn2+]
- Fig. S1c enzyme activity, Exp1 (Pst_13661): 97.91
- Fig. S1c enzyme activity, Exp2 (Pst_13661): 92.55
- Fig. S1c enzyme activity, Exp3 (Pst_13661): 105.61
- Fig. S1c enzyme activity, Mean (Pst_13661): 98.69
- Fig. S1d enzyme activity, Exp1 (VdPDA1 [4]): 76.18
- Fig. S1d enzyme activity, Exp2 (VdPDA1 [4]): 78.11
- Fig. S1d enzyme activity, Exp3 (VdPDA1 [4]): 78.27
- Fig. S1d enzyme activity, Mean (VdPDA1 [4]): 77.52
